From patent US20080286215A1, “Method of Preventing Oral Staining” (priority 2005, published 2008)
Where two headings read alike, the source gives them in different places.

Columns and labels:
[1] = prolonged use, some subjects, noticed by dentists in some studies; cited from earlier work
[2] = seven-day twice-daily mouthwash swilling, staining of teeth and tongue; format: in vivo; conditions: 0.2% mouthwash swilled twice daily for seven days
Procedure: FIG. 1 panel B illustrates staining of the teeth caused when contacted over a seven-day period with Chlorhexidine 0.2% twice daily for one minute (panel A is a control showing seven days rinsing with Delmopinol 0.2% twice daily 10 ml for one minute);
FIG. 2 panel B illustrates staining of the tongue when contacted over a seven day period with Chlorhexidine 0.2% twice daily for one minute (panel A is a control showing seven days rinsing with Delmopinol 0.2% twice daily 10 ml for one minute); and
A subject swilled their mouth twice daily with a 0.2% chlorhexidine mouthwash for seven days.
As a separate control, the subject swilled their mouth twice daily with a 0.2% delmopinol mouthwash for seven days.

[3] = removal of chlorhexidine staining by a single one-minute brushing of the teeth; format: in vivo; conditions: subject with staining after seven days of chlorhexidine, brushed once, toothbrush soaked in 0.2% mouthwash
Excerpt: FIG. 3 illustrates the removal of Chlorhexidine stains seen in FIG. 1(B) by brushing the teeth for one minute with a toothbrush that has been soaked in 0.2% delmopinol. The subject with chlorhexidine staining (after the seven day usage of chlorhexidine) brushed their teeth once, for one minute, using a toothbrush soaked in a 0.2% delmopinol mouthwash.

SMILES	staining of the teeth [1]	staining of the teeth [2]	staining of the tongue [2]	removal of chlorhexidine staining of the teeth [3]
CCCC(CCC)CCCC1COCCN1CCO (stereo not drawn) [delmopinol, 3-(4-propyl-heptyl)-4-(2-hydroxyethyl)morpholine]	mild staining of the teeth	No staining was observed	No staining was observed	removed the staining of the teeth
[H]/N=C(\N/C(=N/[H])NCCCCCCNC(=N)NC(=N)Nc1ccc(Cl)cc1)Nc1ccc(Cl)cc1 [chlorhexidine, reference compound]	–	characteristic staining of the teeth	the tongue was also stained	–
